Experimental data published in patent US20240360100A1, “HETEROCYCLIC COMPOUNDS AS SEROTONIN (5-HT) 5-HT2A AND 5-HT2C RECEPTOR POSITIVE ALLOSTERIC MODULATORS” (The Board of Regents of The University of Texas System, priority 2021, published 2024).

test system: not listed separately; test: Solubility of representative compounds (Table 1); format: physicochemical; details: solvents listed

Molecule	Solubility
4-phenethyl-N-(2-(piperazin-1-yl)ethyl)piperidine-2-carboxamide [AB0131]	EtOH, DMSO
N,N-bis(2-hydroxyethyl)-4-phenethylpiperidine-2-carboxamide [AB0128]	EtOH, DMSO
N-(2-(1,1-dioxidothiomorpholino)ethyl)-4-phenethylpiperidine-2-carboxamide [AB0132]	EtOH, DMSO
N-(2-(2-hydroxyethoxy)ethyl)-4-phenethylpiperidine-2-carboxamide [AB0136]	EtOH, DMSO
N-(2-(4-methylpiperazin-1-yl)ethyl)-4-phenethylpiperidine-2-carboxamide [AB0146]	EtOH, DMSO
N-(2-(dimethylamino)ethyl)-4-phenethylpiperidine-2-carboxamide [AB0124]	EtOH, DMSO
N-(2-hydroxyethyl)-4-phenethylpiperidine-2-carboxamide [AB0123]	EtOH, DMSO
N-(2-hydroxyethyl)-N-methyl-4-phenethylpiperidine-2-carboxamide [AB0127]	EtOH, DMSO
N-(2-methoxyethyl)-4-phenethylpiperidine-2-carboxamide [AB0122]	EtOH, DMSO
N-(3-morpholinopropyl)-4-phenethylpiperidine-2-carboxamide [AB0145]	EtOH, DMSO
N-((1S,2S)-1,3-dihydroxy-1-(4-(methylthio)phenyl)propan-2-yl)-4-phenethylpiperidine-2-carboxamide [AB0135]	EtOH, DMSO
N-((2R,3R)-1,3-dihydroxybutan-2-yl)-4-phenethylpiperidine-2-carboxamide [AB0126]	EtOH, DMSO
N-((2S,3S)-1,3-dihydroxybutan-2-yl)-4-phenethylpiperidine-2-carboxamide [AB0125]	EtOH, DMSO
N-(azetidin-3-yl)-4-phenethylpiperidine-2-carboxamide [AB0121]	EtOH, DMSO

target: T1, 5-HT2CR (Homo sapiens, UniProt P28335); test: 5-HT-evoked Cai2+ release in vitro; format: cell-based; details: highest concentration tested in vitro (10 μM)
T1 construct: expressed in transfected cells
T1 sequence (P28335 33-458): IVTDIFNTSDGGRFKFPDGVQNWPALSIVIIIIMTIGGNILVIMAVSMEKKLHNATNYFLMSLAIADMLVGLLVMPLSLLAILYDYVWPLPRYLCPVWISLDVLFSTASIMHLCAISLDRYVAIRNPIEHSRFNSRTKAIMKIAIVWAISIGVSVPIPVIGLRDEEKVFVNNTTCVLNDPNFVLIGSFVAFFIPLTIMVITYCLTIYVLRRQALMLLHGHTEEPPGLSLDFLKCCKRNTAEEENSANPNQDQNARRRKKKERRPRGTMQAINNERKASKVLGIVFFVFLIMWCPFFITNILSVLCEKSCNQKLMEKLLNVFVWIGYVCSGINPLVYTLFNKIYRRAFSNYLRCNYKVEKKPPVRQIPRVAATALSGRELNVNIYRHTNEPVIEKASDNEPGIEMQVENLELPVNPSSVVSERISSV
Text: General Method for In Vitro Pharmacological Assessment of Compounds of the Invention. The Chinese hamster ovary (CHO) cell lines stably transfected with human unedited (INI) h5-HT2CR (h5-HT2CR—CHO cells) or the human h5-HT2AR (h5-HT2AR—CHO cells) were a generous gift of K. Berg and W. Clarke (University of Texas Health Science Center, San Antonio, TX) (Berg et al., Molecular Pharmacology, 46:477-484, 1994; Ding et al., ACS Chemical Neuroscience, 3:538-545, 2012). […] Changes in Cai^2+ levels were determined using the calcium sensitive dye Calcium 4 or Calcium 6 (FLIPR No-wash kit, Molecular Devices, Sunnyvale, CA). […] The fluorescence readings were then adopted to evaluate the allosteric modulation of 5-HT-induced Cai^2+ release. FlexStation 3 or FLIPR^TETRA was used to measure fluorescence. For FlexStation 3, a 17 s baseline was established before the compound was added, and fluorescence was recorded every 1.7 s thereafter for 240 s. The maximum peak height of each well was determined by SoftMax software (Pro 5.4.5). For FLIPR^TETRA, a 10 s baseline was established before adding the compound, and then record the fluorescence every 1 s for 120 s after the compound or 360 s after 5-HT. The maximum peak height of each well was determined by ScreenWorks 4.0 software. After the final reading, the cells were fixed in 2% paraformaldehyde (Sigma) overnight. […]

Molecule	agonist-like properties
CCCCCCCCCCC[C@@H]1CCN[C@H](C(=O)N[C@@H]([C@H]2O[C@H](SC)[C@H](O)[C@@H](O)[C@H]2O)[C@H](C)Cl)C1.Cl [PNU-69176E]	agonist-like properties observed

same assay, conditions: profile of a 5-HT2CR PAM

Molecule	5-HT-evoked Cai2+ release
CCCCCCCCCCC[C@@H]1CCN[C@H](C(=O)N[C@@H]([C@H]2O[C@H](SC)[C@H](O)[C@@H](O)[C@H]2O)[C@H](C)Cl)C1.Cl [PNU-69176E]	potentiated
